Assay results taken from patent publication US20220378763A1, “COMPOUND FOR TREATMENT OF ACUTE INFLAMMATION IN THE MYOCARDIUM” (CALPROTECT AB, priority 2019, published 2022).

Key:
Type in all cases: in vivo, mouse
[1] = system: α-MHC-mCherry mice with MI; assay: Efferocytosis of mCherry+ cardiomyocytes by heart macrophages, 7 days post-MI; conditions: treatment for 7 days post-MI
Text: All mouse studies were approved by the Animal Research Ethics Committee of Lund University. C57BL/6NRJ mice were purchased from Janvier Labs, C57BL/6-Tg(Nr4a1-EGFP/cre)820Khog/J (Nur77-EGFP) and B6;D2-Tg(Myh6*-mCherry)2Mik/J (α-MHC-mCherry) were purchased from the Jackson Laboratory. Nur77-EGFP mice express the fluorescent EGFP protein under the Nur77 promoter. α-MHC-mCherry mice express the red fluorescent Cherry protein under the mouse alpha myosin heavy-chain promoter in cardiomyocytes. We used 8-12 weeks old female mice in all experiments. MI was induced by left coronary artery ligation using a minimal thoracotomy model. Mice were initially anesthetized with 4% isoflurane and the surgical procedure was performed under 1.7% isoflurane. Following heart exposure outside of the thorax through a small thoracic incision, the left coronary artery was permanently ligated using silk 6.0 suture, the heart repositioned, and the thorax was closed with 6.0 prolene monofilament suture.
In an attempt to explain these intriguing results, we assessed the effects of the extended treatment on the presence of myeloid cells in blood, spleen, bone marrow and myocardium, with particular emphasis on cellular populations involved in myocardial repair. The cellular infiltration was analysed by flow cytometry on day 7, at the peak of the reparatory post-MI period. […]

[2] = system: BALB/c mice with induced myocarditis; assay: Myocarditis induced by cardiac α-myosin peptide: echocardiography; conditions: 30 mg/kg/day orally from day 7
Experimental: Female BALB/c mice, 8 weeks of age, were purchased from Taconic and housed under 12 h:12 h light:dark cycles with access to food and water ad libitum. To induce myocarditis, all mice were injected subcutaneously (s.c.) with 100 μg murine cardiac a-myosin heavy chain peptide (Ac-RSLKLMATLFSTYASADR-OH, Anaspec) emulsified 1:1 in complete Freund's adjuvant containing 1 mg/mL heat-killed Mycobacterium tuberculosis H37Ra (Sigma-Aldrich), on days 0 and 7 (FIG. 17A). ABR-238901 was administered orally ad-libitum diluted in meglumine buffer (to prevent precipitation in the drinking bottle during the course of the experiment) at a dose of 30 mg/kg/day, starting on day 7 and throughout the course of the experiment (n=9 mice). Fluid intake was closely monitored during the experiment to ensure an appropriate drug dosage. Mice with induced myocarditis drinking meglumine buffer alone ad-libitum were used as controls (n=12 mice). Mice received daily attendance to ensure their well-being. All mouse studies were approved by the Animal Research Ethics Committee of Lund University.
Transthoracic echocardiography was performed as described under Example 7. Cardiac function was evaluated by echocardiography at baseline and at 21, 28 and 35 days after the first injection of murine cardiac a-myosin heavy chain peptide.

[3] = system: BALB/c mice with induced myocarditis; assay: Myocarditis induced by cardiac α-myosin peptide: flow cytometry of heart and heart-draining lymph nodes; conditions: day 21
Experimental: Animal care, induction of myocarditis and treatments were performed as described above (Example 11) (n=10 mice per group). The mice were sacrificed on day 21, and hearts and mediastinal heart-draining lymph nodes were isolated.
Single cell suspensions were obtained from the organs by mechanic sectioning and enzymatic digestion, and the cells were stained with fluorescently-conjugated antibodies for analysis by flow cytometry. After euthanization, the mice were perfused intra-cardially with 20 ml ice-cold PBS, hearts and mediastinal lymph nodes were harvested and placed in PBS on ice. Hearts were cut in small pieces for 2 min while placed in digestion mixture containing 450 U/ml Collagenase I-S (Sigma-Aldrich, C0130), 125 U/ml Collagenase XI (Sigma-Aldrich, C7657), 60 U/ml Hyaluronidase Type I-S(Sigma-Aldrich H3506), 60 U/ml DNAse I (Sigma-Aldrich, DN25), and 20 mM HEPES (Fischer Scientific, SH3023701) in PBS, and thereafter incubated for 1 h at 37° C. with gentle agitation. Enzymatically-digested tissues were passed through a 70 μm cell strainer and washed twice with PBS. Mediastinal lymph nodes were passed through a 70 μm cell strainer and washed twice with PBS before staining. Single cell suspensions were stained in PBS with Zombie Aqua live/dead (BioLegend, 423102) for 10 min at RT followed by extracellular staining in FC-buffer (PBS, 0.5% BSA and 20 mM EDTA) with fluorescently-conjugated antibodies for 20 min on ice. The following monoclonal antibodies were used: anti-CD3ε (clone 145-2C11), anti-CD4 (clone OKT4), anti-CD8 (clone RPA-T8), anti-CD11b (clone EP1345Y), anti-CD11c (clone N418), anti-CD19 (clone 6D5), anti-CD44 (clone IM7), anti-CD45.2 (clone 104), anti-CD49b (clone DX5) anti-CD62L (clone MEL-14), […], anti-CD69 (clone X54-5/7.1), anti-CD115 (clone AFS98), anti-Ly-6C (clone HK1.4), anti-Ly-6G (clone 1A8), anti-MerTK (clone DS5MMER), anti-MHCII (clone M5/114.15.2), anti-Siglec-F (clone E50-2440). Appropriate single stains were performed using AbC Total Antibody Compensation Bead kit (Thermo Fischer Scientific) or with cells for live/dead. Flow cytometry analysis was done using a Gallios Flow Cytometer (Beckman Coulter) and data was analyzed using the FlowJo software (Tree Star).

Compound: COc1ncc(S(=O)(=O)Nc2cncc(Cl)c2O)cc1Br [ABR-238901, 5-bromo-N-(5-chloro-4-hydroxypyridin-3-yl)-6-methoxypyridine-3-sulfonamide]
- Reduction of the number of macrophages having phagocytosed mCherry+ cardiomyocytes [1]: approximately 50%
- mCherry mean fluorescent intensity (MFI) in MerTKhi and MerTKlo macrophages [1]: did not affect
- Cardiac output ([2]; day 28): 11.26 mL/min
- Left ventricular ejection fraction (LVEF) ([2]; day 28): 52%
- Cardiac output ([2]; day 35): 12.03 mL/min
- Left ventricular ejection fraction (LVEF) ([2]; day 35): 53%
- Cardiac eosinophil infiltration, percent of live CD45+ leukocytes [3]: 7.5%
- Effector memory (CD44+CD62L−) CD4+ T cells in heart-draining lymph nodes, percent of live CD45+CD3+ T cells [3]: 15.9%
- Effector memory (CD44+CD62L−) CD8+ T cells in heart-draining lymph nodes, percent of live CD45+CD3+ T cells [3]: 23.3%
- Infiltration of cDCs in the heart, % of live CD45+ leukocytes [3]: 5.7%
- Total CD3+ T cells in heart-draining lymph nodes, % of live CD45+ leukocytes [3]: 59.5%
